Experimental data published in US4818761A, “2-(4-pyridylaminomethyl)-benzimidazole derivatives having antiviral activity” (priority 1986, dated 1989).
In brackets after ≈: the same amount, converted by molar mass.

How the values were obtained:
[1] = test system: enterovirus type 70 (EV70); assay: Inhibition of EV70 cytopathogenic effect (CPE) in LLC-MK2 cells; assay type: cell-based; settings: for IC50: Enterovirus D, * Virus CPE inhibition assay, LLC-MK2 cells, 33° C.; for CI EV70 (C)/(A): CI = CD50 (LLC-MK2)/IC50 (virus CPE)
[2] = test system: rhinovirus type 14 (HRV14); assay: Inhibition of HRV14 cytopathogenic effect (CPE) in HeLa cells; assay type: cell-based; settings: for IC50: Enterovirus, HRV14, * Virus CPE inhibition assay, HeLa cells, 33° C.; for CI HRV14 (D)/(B): CI = CD50 (HeLa)/IC50 (virus CPE)
[3] = in vitro; settings: monkey, llc-mk2 cells
[4] = in vitro; settings: human, hela cells
[5] = test system: coxsackievirus type B4 (CB4); assay: Inhibition of CB4 cytopathogenic effect (CPE) in LLC-MK2 cells; assay type: cell-based; settings: for CI CB4 (C)/(A): CI = CD50 (LLC-MK2)/IC50 (virus CPE); for IC50: Coxsackievirus, * Virus CPE inhibition assay, LLC-MK2 cells, 37° C.
[6] = test system: enterovirus type 70 (EV70); assay: Inhibition of EV70 plaque formation in LLC-MK2 cells; assay type: cell-based; settings: for CI EV70 (C)/(A): CI = CD50 (LLC-MK2)/IC50 (plaque); for IC50: Enterovirus D, plaque reduction, LLC-MK2 cells, 33° C.
[7] = test system: poliovirus type 2 (Polio2); assay: microbe, parasite or virus in culture; assay type: cell-based; settings: for CI Polio2 (C)/(A): CI = CD50 (LLC-MK2)/IC50 (plaque); for IC50: Enterovirus C, LLC-MK2, read-out: IC50 Polio2
[8] = test system: coxsackievirus type B4 (CB4); assay: Inhibition of CB4 plaque formation in LLC-MK2 cells; assay type: cell-based; settings: for CI CB4 (C)/(A): CI = CD50 (LLC-MK2)/IC50 (plaque); for IC50: Coxsackievirus, plaque reduction, LLC-MK2 cells, 37° C.
[9] = test system: rhinovirus type 14 (HRV14); assay: Inhibition of HRV14 plaque formation in HeLa cells; assay type: cell-based; settings: for IC50: Enterovirus, HRV14, plaque reduction, HeLa cells, 33° C.
[10] = Cytotoxicity, morphology of HeLa cells; settings: human
[11] = Cytotoxicity, morphology of LLC-MK2 cells; settings: monkey
[12] = test system: CB4 strain 637; assay: Anti-coxsackievirus activity in vivo, CB4-induced hypoglycemia in SJL/J mice; settings: single, daily intraperitoneal doses as low as 20 mg/kg, initiated 2 hr after infection and continued for 5 days
Protocol: Anti-coxsackievirus activity, in vivo. Compound No. XII and XXI were examined for its activity against CB4-induced hypoglycemia in SJL/J mice. […] Blood specimens were collected from the tail vein of each mouse before and 2, 3, 4 and 5 days after infection for assaying its plasma glucose levels. The differences in mean relative plasma glucose of uninfected control and compound-treated groups or placebo groups were evaluated by Student's t-test.

Row | SMILES | IC50 [1] [µg/mL] | IC50 [2] [µg/mL] | CC50 [3] [µg/mL] | CC50 [4] [µg/mL] | CI EV70 (C)/(A) [1] | IC50 [5] [µg/mL] | CI EV70 (C)/(A) [6] | IC50 [6] [µg/mL] | IC50 [7] [µg/mL] | CI CB4 (C)/(A) [8] | IC50 [8] [µg/mL] | CC50 [11] [µg/mL] | other results
1 | Clc1cc(Cl)c2nc(CNc3ccncc3)[nH]c2c1 [XXVII] | > 100 | > 17.8 | > 100 | 17.8 (≈ 60.7 µM) | – | – | – | – | – | – | – | – | –
2 | Cc1ccc2nc(CNc3ccncc3)n(-c3ccccc3)c2c1 [XLIII] | 17.8 (≈ 56.6 µM) | > 100 | > 100 | > 100 | > 6 | 3.2 (≈ 10.2 µM) | – | – | – | – | – | – | CI CB4 (C)/(A) [5]: > 31
3 | Cc1cc(Cl)c2nc(CNc3ccncc3)[nH]c2c1 [XXVI] | > 100 | > 56.2 | 1410 (≈ 5180 µM) | 56.2 (≈ 206 µM) | – | – | – | – | – | – | – | – | –
4 | c1ccc2c(c1)nc(CNc1ccncc1)n2-c1nccs1 [LXXIII] | > 100 | > 100 | > 100 | > 100 | – | > 100 | – | – | – | – | – | – | –
5 | Cc1cc(Cl)cc2[nH]c(CNc3ccncc3)nc12 [XXV] | 56.2 (≈ 206 µM) | 17.8 (≈ 65.3 µM) | 707 (≈ 2590 µM) | 17.8 (≈ 65.3 µM) | 13 | – | – | – | – | – | – | – | –
6 | Cc1cc2nc(CNc3ccncc3)[nH]c2cc1Br [XXVIII] | – | – | – | – | – | – | 88 | 2 (≈ 6.31 µM) | 34 (≈ 107 µM) | 13 | 13.5 (≈ 42.6 µM) | 177 (≈ 557 µM) | CI Polio2 (C)/(A) [7]: 5; CI HRV14 (D)/(B) ([9]; CI = CD50 (HeLa)/IC50 (plaque)): 15; IC50 [9]: 3.6 µg/mL (≈ 11.3 µM); CC50 [10]: 56.2 µg/mL (≈ 177 µM)
7 | CCCn1c(CNc2ccncc2)nc2ccccc21 [XII] | – | – | > 2000 | – | – | – | > 465 | 4.3 (≈ 16.1 µM) | 3.6 (≈ 13.5 µM) | > 4,255 | 0.47 (≈ 1.76 µM) | – | CI Polio2 (C)/(A) [7]: > 556; IC50 [9]: > 50 µg/mL; onset of CB4-induced hypoglycemia [12]: inhibited the onset of CB4-induced hypoglycemia
8 | Cn1c(CNc2ccncc2)nc2cc(Cl)ccc21 [XXXVIII] | – | – | – | – | – | – | – | 115 (≈ 422 µM) | > 100 | > 2 | 56 (≈ 205 µM) | > 100 | IC50 [9]: > 50 µg/mL
9 | CCc1ccc2c(c1)nc(CNc1ccncc1)n2C [XXXVII] | – | – | – | – | – | – | > 5 | 22 (≈ 82.6 µM) | > 100 | – | > 50 | > 100 | IC50 [9]: 20 µg/mL (≈ 75.1 µM)
10 | Fc1ccc2nc(CNc3ccncc3)n(-c3ccccc3)c2c1 [XLVIII] | > 100 | – | – | – | – | > 100 | – | – | – | – | – | > 100 | –
11 | COc1cc2nc(CNc3ccncc3)[nH]c2cc1Cl [XXXIII] | 56.2 (≈ 195 µM) | – | – | – | > 2 | – | – | – | – | – | – | > 100 | –
12 | Cl.Fc1cccc(-n2c(CNc3ccncc3)nc3ccccc32)c1 [LVIII, 1-(3-fluorophenyl)-2-(4-pyridylaminomethyl)benzimidazole hydrochloride] | – | > 100 | > 1000 | > 100 | – | – | > 200 | 5 | > 100 | > 278 | 3.6 | – | –
13 | CCc1ccccc1-n1c(CNc2ccncc2)nc2ccccc21 [LXV] | > 100 | > 100 | > 100 | > 100 | – | > 100 | – | – | – | – | – | – | –
14 | CCOc1ccc2[nH]c(CNc3ccncc3)nc2c1 [IV] | – | > 100 | > 100 | > 100 | – | – | > 3 | 39 (≈ 145 µM) | 460 (≈ 1710 µM) | > 1 | 93 (≈ 347 µM) | – | –
15 | CCc1cc2c(cc1Cl)nc(CNc1ccncc1)n2-c1ccccc1 [LXXV, 1-phenyl-2-(4-pyridylaminomethyl)-5-chloro-6-ethylbenzimidazole] | > 56.2 | 5.6 (≈ 15.4 µM) | > 100 | 17.8 (≈ 49.1 µM) | > 2 | > 100 | – | – | – | – | – | – | CI HRV14 (D)/(B) [2]: 3
16 | CCc1ccc2c(c1)nc(CNc1ccncc1)n2-c1ccccc1 [XLIV] | 3.2 (≈ 9.74 µM) | 17.8 (≈ 54.2 µM) | > 100 | > 100 | > 31 | 6.8 (≈ 20.7 µM) | – | – | – | – | – | – | CI CB4 (C)/(A) [5]: > 15; CI HRV14 (D)/(B) [2]: > 6
